Active and inactive are the calls of the source. No cut-off for these calls is given here.
Columns and labels:
[1] = system: LNCaP; assay: Cytotoxicity against human LNCaP cells assessed as reduction in cell viability incubated for 72 hrs by MTT assay; format: functional, cell-based
[2] = target: T1, Androgen receptor (Homo sapiens, UniProt P10275)
T1 sequence (P10275 whole entry): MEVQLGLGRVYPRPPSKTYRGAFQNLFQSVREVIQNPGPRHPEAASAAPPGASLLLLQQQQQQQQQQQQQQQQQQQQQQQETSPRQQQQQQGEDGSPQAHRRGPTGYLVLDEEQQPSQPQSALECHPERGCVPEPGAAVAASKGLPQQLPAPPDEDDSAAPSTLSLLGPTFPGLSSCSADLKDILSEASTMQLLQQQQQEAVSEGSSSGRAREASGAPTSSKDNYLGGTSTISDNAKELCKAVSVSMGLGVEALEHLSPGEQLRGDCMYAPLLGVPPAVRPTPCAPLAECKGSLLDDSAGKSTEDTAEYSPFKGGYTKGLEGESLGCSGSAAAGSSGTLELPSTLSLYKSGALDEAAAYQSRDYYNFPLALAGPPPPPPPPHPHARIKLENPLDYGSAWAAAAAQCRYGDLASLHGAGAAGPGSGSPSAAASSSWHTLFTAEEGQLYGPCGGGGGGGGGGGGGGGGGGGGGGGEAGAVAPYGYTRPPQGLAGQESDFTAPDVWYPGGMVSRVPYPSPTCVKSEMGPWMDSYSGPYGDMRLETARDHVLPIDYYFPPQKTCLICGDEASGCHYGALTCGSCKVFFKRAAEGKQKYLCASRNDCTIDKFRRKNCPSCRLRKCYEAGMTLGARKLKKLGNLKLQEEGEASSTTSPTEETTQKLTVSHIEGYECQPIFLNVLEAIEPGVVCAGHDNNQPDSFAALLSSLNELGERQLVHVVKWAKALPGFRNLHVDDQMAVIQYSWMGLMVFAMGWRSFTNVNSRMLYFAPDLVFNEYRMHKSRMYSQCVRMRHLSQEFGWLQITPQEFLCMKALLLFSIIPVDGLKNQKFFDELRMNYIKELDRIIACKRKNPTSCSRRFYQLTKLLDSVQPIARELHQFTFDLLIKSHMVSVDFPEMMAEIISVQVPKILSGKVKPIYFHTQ
Description: Binding affinity to GST-tagged AR ligand binding domain (unknown origin) measured after 4 hrs by fluorescence polarization assay

[3] = system: DU-145; assay: Cytotoxicity against human DU-145 cells assessed as reduction in cell viability incubated for 72 hrs by MTT assay; format: functional, cell-based
[4] = system: MCF7; assay: Cytotoxicity against human MCF7 cells assessed as reduction in cell viability at low concentration incubated for 72 hrs by MTT assay; format: functional, cell-based
[5] = system: A549; assay: Cytotoxicity against human A549 cells assessed as reduction in cell viability at 50 uM incubated for 72 hrs by MTT assay; format: functional, cell-based
[6] = target: T2, Androgen receptor (Homo sapiens) (UniProt P10275); assay: Antagonist activity at androgen receptor in human LNCaP cells assessed as reduction in DHT-induced TMPRSS2 mRNA expression after 48 hrs by SYBR green dye based qPCR analysis; format: cell-based; settings: filed as antagonist, dose 0.1-10 µM
T2 sequence (whole entry): T1 sequence (P10275 whole entry)

[7] = system: GES1; assay: Cytotoxicity against human GES1 cells assessed as reduction in cell viability incubated for 72 hrs by MTT assay; format: cell-based; settings: ges1, 72 h
[8] = system: LNCaP C4-2; assay: Cytotoxicity against human C4-2 cells assessed as reduction in cell viability incubated for 72 hrs by MTT assay; format: functional, cell-based
[9] = target: T3, Progesterone receptor (Homo sapiens) (UniProt P06401); assay: Agonist activity at progesterone receptor in human HEK293T cells by dual-Glo luciferase assay; format: cell-based
T3 sequence (whole entry): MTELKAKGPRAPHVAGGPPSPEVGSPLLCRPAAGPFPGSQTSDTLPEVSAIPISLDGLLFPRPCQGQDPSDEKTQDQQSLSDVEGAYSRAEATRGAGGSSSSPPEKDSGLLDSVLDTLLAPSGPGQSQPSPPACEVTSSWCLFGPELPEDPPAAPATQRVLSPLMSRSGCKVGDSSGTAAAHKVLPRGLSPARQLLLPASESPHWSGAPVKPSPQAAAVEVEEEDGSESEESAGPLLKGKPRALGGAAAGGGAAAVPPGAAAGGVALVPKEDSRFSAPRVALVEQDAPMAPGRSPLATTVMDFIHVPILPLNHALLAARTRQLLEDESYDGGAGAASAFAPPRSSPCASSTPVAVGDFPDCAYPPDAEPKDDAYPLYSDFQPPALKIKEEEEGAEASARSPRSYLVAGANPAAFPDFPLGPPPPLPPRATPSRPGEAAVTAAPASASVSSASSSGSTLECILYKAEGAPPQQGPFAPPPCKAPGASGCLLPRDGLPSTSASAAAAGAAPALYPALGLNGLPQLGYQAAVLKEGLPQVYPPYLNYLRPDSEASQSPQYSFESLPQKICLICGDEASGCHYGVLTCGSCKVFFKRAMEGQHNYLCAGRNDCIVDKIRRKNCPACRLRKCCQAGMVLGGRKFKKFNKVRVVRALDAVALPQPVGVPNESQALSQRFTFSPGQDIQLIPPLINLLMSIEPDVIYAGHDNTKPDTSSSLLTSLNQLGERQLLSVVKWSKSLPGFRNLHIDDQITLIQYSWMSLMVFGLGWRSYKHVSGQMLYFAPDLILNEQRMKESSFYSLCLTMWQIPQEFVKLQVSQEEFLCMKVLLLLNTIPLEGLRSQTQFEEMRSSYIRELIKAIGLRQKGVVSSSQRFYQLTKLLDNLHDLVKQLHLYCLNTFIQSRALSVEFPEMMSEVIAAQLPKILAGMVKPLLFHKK

[10] = system: CWR22R; assay: Cytotoxicity against human 22Rv1 cells assessed as reduction in cell viability incubated for 72 hrs by MTT assay; format: functional, cell-based
[11] = system: HeLa; assay: Cytotoxicity against human HeLa cells assessed as reduction in cell viability at low concentration incubated for 72 hrs by MTT assay; format: functional, cell-based
[12] = system: LNCaP; assay: Inhibition of colony formation in human LANCaP cells after 2 weeks by crystal violet staining based assay; format: functional, cell-based; settings: dose 2-20 µM
[13] = target: T2, Androgen receptor (Homo sapiens); assay: Antagonist activity at androgen receptor in human LNCaP cells assessed as reduction in DHT-induced AR protein expression at 0.1 to 10 uM after 48 hrs by Western blot analysis; format: cell-based; settings: dose 0.1-10 µM
[14] = system: NIH3T3; assay: Cytotoxicity against mouse NIH3T3 cells assessed as reduction in cell viability incubated for 72 hrs by MTT assay; format: cell-based; settings: nih3t3, 72 h
[15] = target: T2, Androgen receptor (Homo sapiens); assay: Antagonist activity at androgen receptor in human LNCaP cells assessed as reduction in DHT-induced secreted PSA level; format: cell-based; settings: filed as antagonist, dose 0.1-10 µM, time 48.0 hrs
[16] = system: HepG2; assay: Cytotoxicity against human HepG2 cells assessed as reduction in cell viability at low concentration incubated for 72 hrs by MTT assay; format: functional, cell-based
[17] = system: HeLa; assay: Cytotoxicity against human HeLa cells assessed as reduction in cell viability at 50 uM incubated for 72 hrs by MTT assay; format: functional, cell-based
[18] = system: PC-3; assay: Cytotoxicity against human PC-3 cells assessed as reduction in cell viability incubated for 72 hrs by MTT assay; format: functional, cell-based

Structure (SMILES): O=c1cc(C(F)(F)F)c2ccc(OCc3ccc(Br)cc3)cc2o1
- Activity [1]: Active
- IC50 [2]: 750 nM
- Activity [3]: Active
- Activity [4]: inactive
- Activity [5]: Active
- Activity [6]: Dose-dependent effect
- Activity [7]: Non-Toxic
- Activity [8]: Active
- Activity [9]: inactive
- Activity [10]: Active
- Activity [11]: inactive
- inhibition [12]: Dose-dependent effect
- Activity [13]: inactive
- Activity [14]: Non-Toxic
- Activity [15]: Dose-dependent effect
- Activity [16]: inactive
- Activity [17]: Active
- Activity [18]: Active

From ChEMBL document CHEMBL5055679, “Discovery of a Novel Androgen Receptor Antagonist Manifesting Evidence to Disrupt the Dimerization of the Ligand-Binding Domain via Attenuating the Hydrogen-Bonding Network Between the Two Monomers” (J Med Chem, 2021)
